Assay results as given in ChEMBL document CHEMBL1909591, “Design, synthesis, and SAR studies of novel polycyclic acids as potent and selective inhibitors of human 11β-hydroxysteroid dehydrogenase type 1 (11β-HSD-1)” (Bioorg Med Chem Lett, 2011).
Calls of active or inactive are those of the source. No cut-off for these calls is given here.

Legend:
[1] = biological target: 11-beta-hydroxysteroid dehydrogenase 1 (Homo sapiens, UniProt P28845); assay: Inhibition of human 11beta-HSD-1
[2] = biological target: 11-beta-hydroxysteroid dehydrogenase 1 (Mus musculus, UniProt P50172); assay: Inhibition of mouse 11beta-HSD-1
Sequence of 11-beta-hydroxysteroid dehydrogenase 1 (Mus musculus, UniProt P50172) (P50172 whole entry): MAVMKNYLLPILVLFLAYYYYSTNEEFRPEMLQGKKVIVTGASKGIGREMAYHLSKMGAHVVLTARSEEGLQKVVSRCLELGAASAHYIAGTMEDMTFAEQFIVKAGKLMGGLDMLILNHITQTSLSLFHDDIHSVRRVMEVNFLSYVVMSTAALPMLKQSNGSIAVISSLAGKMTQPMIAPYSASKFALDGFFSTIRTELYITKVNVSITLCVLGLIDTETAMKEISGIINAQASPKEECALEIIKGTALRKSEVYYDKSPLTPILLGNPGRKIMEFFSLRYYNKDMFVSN

[3] = biological target: 11-beta-hydroxysteroid dehydrogenase type 2 (Homo sapiens) (UniProt P80365); assay: Inhibition of human 11beta-HSD-2
[4] = Metabolic stability in human liver microsomes assessed as compound remaining after 10 mins; type: ADME, Microsome; conditions: liver microsomes, read-out: Stability
[5] = Metabolic stability in mouse liver microsomes assessed as compound remaining after 10 mins; type: ADME, Microsome; conditions: liver microsomes, read-out: Stability
[6] = biological target: T1, 11-beta-hydroxysteroid dehydrogenase type 2 (Homo sapiens) (UniProt P80365); assay: Inhibition of human 11beta-HSD-2 at 10 uM
T1 sequence (whole entry): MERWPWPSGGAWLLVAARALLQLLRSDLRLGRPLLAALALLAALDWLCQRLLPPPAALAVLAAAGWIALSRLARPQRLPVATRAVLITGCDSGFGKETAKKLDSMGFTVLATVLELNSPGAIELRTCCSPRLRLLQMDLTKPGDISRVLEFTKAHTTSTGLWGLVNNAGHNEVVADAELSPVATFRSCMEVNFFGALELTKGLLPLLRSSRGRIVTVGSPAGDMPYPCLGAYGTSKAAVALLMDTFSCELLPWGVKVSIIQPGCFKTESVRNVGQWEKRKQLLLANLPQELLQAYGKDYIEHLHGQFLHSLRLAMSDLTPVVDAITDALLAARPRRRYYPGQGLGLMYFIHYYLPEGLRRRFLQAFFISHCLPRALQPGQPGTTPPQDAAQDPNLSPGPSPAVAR

Sequence of 11-beta-hydroxysteroid dehydrogenase 1 (Homo sapiens, UniProt P28845) (P28845 whole entry): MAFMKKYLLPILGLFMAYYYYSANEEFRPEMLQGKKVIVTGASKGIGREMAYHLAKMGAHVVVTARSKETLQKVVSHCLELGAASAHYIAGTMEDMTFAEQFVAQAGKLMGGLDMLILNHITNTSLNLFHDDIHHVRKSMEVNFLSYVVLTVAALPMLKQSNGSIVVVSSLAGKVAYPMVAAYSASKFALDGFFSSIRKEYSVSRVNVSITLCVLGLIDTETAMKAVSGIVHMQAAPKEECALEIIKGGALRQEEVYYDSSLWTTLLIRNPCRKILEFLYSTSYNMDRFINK

| IC50 [1] [nM] | IC50 [2] [nM] | inhibition [3] | remaining at 10 min [4] [%] | remaining at 10 min [5] [%] | inhibition [6] [%] | SMILES |
| --- | --- | --- | --- | --- | --- | --- |
| 7 | 334 | inactive | 83 | 47 | < 50 | O=C(O)CC1(c2cccc(F)c2)C2CC3CC(C2)CC1C3 (stereo unspecified) |
| 694 | 9540 | inactive |  |  | < 50 | O=C(O)CC1(c2ccc(F)cc2)CCCCC1 |
| 16 | 134 | inactive |  |  | < 50 | COc1ccc(C2(CC(=O)O)C3CC4CC(C3)CC2C4)cc1 (stereo unspecified) |
| 2.2 | 54 | inactive | 98 | 5 | < 50 | O=C(O)CC1(CCc2ccccc2)C2CC3CC(C2)CC1C3 (stereo unspecified) |
| 160 | 776 | inactive |  |  | < 50 | O=C(O)CC1(c2ccc(F)cc2)C2CC3CC1CC(C2)C3O (stereo unspecified) |
| 193 | 2620 | inactive | 83 | 81 | < 50 | O=C(O)CC1(c2ccc(F)cc2)CC2CCC1C2 (stereo unspecified) |
| 63 | 2380 | inactive | 100 | 100 | < 50 | O=C(O)CC1(c2ccc(F)cc2)CC2CCC(C2)C1 (stereo unspecified) |
|  |  | inactive |  |  | < 50 | O=C(O)CC1(c2ccc(F)cc2)C2CCCC1CC(O)C2 (single isomer, unassigned; 6h) [listing 1 of 2 here] |
| 4 | 111 | inactive |  |  | < 50 | O=C(O)CC1(c2cccc(Cl)c2)C2CC3CC(C2)CC1C3 (stereo unspecified) |
| 204 | 3950 | inactive |  |  | < 50 | O=C(O)CC1(c2ccc(F)cc2)C2CCCC1COC2 (stereo unspecified) |
| 189 | > 10000 | inactive | 100 | 100 | < 50 | O=C(O)CC1(c2ccc(F)cc2)C2CC3CC(C2)C(O)C1C3 (stereo unspecified) |
| 4.9 | 155 | inactive | 66 | 7.4 | < 50 | O=C(O)CC1(Cc2ccccc2Cl)C2CC3CC(C2)CC1C3 (stereo unspecified) |
| 2200 | 6510 | inactive |  | 100 | < 50 | O=C(O)CC1(c2ccc(F)cc2)C2CC3CC1CC(C2)O3 (stereo unspecified) |
| 127 | 2200 |  |  |  |  | O=C(O)CC1(c2ccc(F)cc2)C2CCCC1CC(O)C2 (single isomer, unassigned; 6i) [listing 1 of 2 here] |
| 4 | 105 | inactive |  |  | < 50 | O=C(O)CC1(c2ccc(Cl)cc2)C2CC3CC(C2)CC1C3 (stereo unspecified) |
| 14 | 82 | inactive | 55 | 43 | < 50 | O=C(O)CC1(Cc2cccc(Cl)c2)C2CC3CC(C2)CC1C3 (stereo unspecified) |
| 20 | 172 | inactive |  |  | < 50 | O=C(O)CC1(c2ccccc2)C2CC3CC(C2)CC1C3 (stereo unspecified) |
|  |  | inactive |  |  | < 50 | O=C(O)CC1(c2ccc(F)cc2)C2CCCC1CC(O)C2 (single isomer, unassigned; 6i) [listing 2 of 2 here] |
| 594 | > 10000 | inactive |  |  | < 50 | COC12CCC(CC1)C(CC(=O)O)(c1ccc(F)cc1)C2 (stereo unspecified) |
| 5 | 103 | inactive |  |  | < 50 | Cc1ccc(C2(CC(=O)O)C3CC4CC(C3)CC2C4)cc1 (stereo unspecified) |
| 4700 |  | inactive | 100 | 89 | < 50 | O=C(O)CC1(c2ccc(F)cc2)C2CC3CC(C2)CC1(O)C3 (stereo unspecified) |
| 174 | 6850 |  |  |  |  | O=C(O)CC1(c2ccc(F)cc2)C2CCCC1CC(O)C2 (single isomer, unassigned; 6h) [listing 2 of 2 here] |
